Assay results: article PMC6143478, “Lipophilic activated ester prodrug approach for drug delivery to the intestinal lymphatic system” (Journal of Controlled Release, 2018)

Tests used:
[1] = Plasma pharmacokinetics following intravenous administration in rats; type: in vivo; settings: i.v., dose equivalent to 2.5 mg/kg BEX, rat; in words
Method: The protocols for pharmacokinetic and biodistribution experiments in this study were reviewed and approved by the University of Nottingham Ethical Review Committee in accordance with the Animals [Scientific Procedures] Act 1986. Male Sprague Dawley rats (Charles River Laboratories, UK) weighing 350–380 g were used. The animals were housed in the Bio Support Unit, University of Nottingham. Continuous lymph collection was performed according to a protocol approved by the Institutional Animal Care and Use Committee at Rutgers, The State University of New Jersey. Male Sprague Dawley rats (Envigo, Inc., NJ, USA) weighing 300–350 g were used for the continuous lymph collection. […]
Jugular vein cannulation surgery procedures were conducted under general anaesthesia for blood sampling. […] Blood samples of 250 μL volume were collected from the cannula at pre-determined time points following administration. […]
The HPLC-UV system consisting of a separation module (Waters Alliance 2695) equipped with a UV detector (Waters 996) was used for analysis. […] BEX and its prodrugs were detected at 259 nm and RA and its prodrugs at 357 nm.
Assessment of statistical significance of differences between two groups was conducted by means of two-tailed unpaired t-test. Statistical significance among three or more groups was assessed by means of a one-way ANOVA followed by Tukey's multiple comparisons test. […]

[2] = Prodrug conversion assay in postprandial rat lymph; type: in vitro ADME; settings: CM-rich postprandial rat lymph, ex vivo; relative to rat plasma
Method: The prodrugs were tested for their stability and conversion into their corresponding active drug using fasted state simulated intestinal fluid (FaSSIF) with added esterase enzyme activity (20 IU/mL), rat plasma, and postprandial rat lymph. The FaSSIF was prepared as previously described in the literature. The medium was pre-heated to 37 °C prior to the assay for 5 min. The experiment was initiated by spiking stock solutions of prodrugs to give a final concentration of 10 μM of the prodrugs in the medium. When the stability of the artificial emulsion-associated prodrugs was tested in plasma, the association of compounds with artificial emulsion was performed prior to stability experiments and the concentrations of the compounds in the associated emulsion were measured. The emulsion was then spiked to give a concentration of 10 μM of the prodrugs in plasma. The reaction mixtures were incubated at 37 °C and shaken at 200 rpm on a temperature-controlled orbital shaker (Thermo Scientific MaxQ4000, Waltham, MA, USA) for 4 h. Samples were withdrawn at pre-determined time points, and the reaction was terminated by addition of acetonitrile. The samples were then subjected to sample preparation and analysis as described below. […] Half-life of active drug release (t1/2) was calculated by the following equation: t1/2 = −0.693/k. […]

C=C(c1ccc(C(=O)OCC)cc1)c1cc2c(cc1C)C(C)(C)CCC2(C)C [prodrug 2]
conversion of prodrug to BEX in plasma in vivo [1]: rapidly converted to BEX | half-life of active drug release in postprandial lymph [2]: prolonged
